The text below walks through data of paper PMC5589570, “The antigenic identity of human class I MHC phosphopeptides is critically dependent upon phosphorylation status” (Oncotarget, 2017).

Like-named read-outs stand apart in the source and are kept apart here. Square brackets hold non-standard residues; d marks the D form. Ends that are not written are not given here. Peptide text beside a SMILES is read from it. pS = N[C@@H](COP(=O)(O)O)C(=O)O

Assay [1] deals with T1, HLA-A2 (Homo sapiens, UniProt P04439, D140Y/D185E/D98H/E176V/E277Q/G131W/G231S/I119V/I121R/I166T/I218V/L300P/L318F/N151K/N90K/P208A/P217A/Q86G/Q94H/R138H/R169H/T345S).
T1 construct: made in house
The experiment in a line: Competitive peptide-MHC affinity assay (displacement of radiolabeled peptide). The settings on record: competitive binding, IC50 of displacement of radiolabeled peptide taken as approximation of Kd; 100,000-fold concentration range, each concentration in triplicate; W6/32 capture; read-out: Kd (pMHC affinity for HLA-A2). Here is the method:
HLA-A2 heavy chain was expressed in E. coli, refolded with β2M and the peptide […], and purified as described above. Competitive peptide binding assays were carried out as described. Test peptide concentrations covered a 100,000-fold range, with each concentration assayed in triplicate. MHC-peptide complexes were captured on microplates coated with monoclonal antibody W6/32 (to human HLA) and washed, and radioactivity quantified with a microscintillation counter. The concentration of test peptide that displaced 50% of the radiolabeled peptide (IC50) was calculated. In these conditions (in which the concentration of the label is less than the concentration of MHC and the IC50 is greater than or equal to the concentration of MHC), the IC50 is a reasonable approximation of the dissociation constant.

Assay [2] has as its system TCRpCDC25b. The experiment in a line: SPR (BIAcore) TCR/peptide-MHC binding, HLA-A2-peptide complex injected over immobilised TCR. Set-up: species or system mice. Particulars: for specific binding of HLA-A2-peptide complex to immobilised TCRpCDC25b: responses compared with control surfaces (LDN5 and streptavidin), Figure 7A. The source says:
Having established that phosphorylation has diverse effects on epitope structure, we aimed to test whether a phosphorylated epitope could be distinguished from its unmodified counterpart by the TCR. We previously generated phosphopeptide-specific CD8^+ T cells by immunising mice expressing a transgenic recombinant HLA-A*0201 molecule (AAD) with activated bone-marrow-derived dendritic cells pulsed with synthetic phosphopeptides corresponding to those naturally presented on the surface of human tumour cell lines. Despite the ability to isolate functional phosphopeptide specific T-cells, attempts to generate clonal populations of RQA_V specific T-cells for TCR isolation or produce soluble TCRs of sufficient quality from T-cell clones specific for PKD and RQI were unsuccessful. However we were able to generate soluble TCR (termed TCRpCDC25b) using cDNA sequences isolated from a T cell clone that recognised a phosphopeptide epitope derived from the CDC25b protein (GLLGpSPVRA, subsequently termed GLLGpS) of sufficient quality for surface plasmon resonance analysis.
To investigate if recognition was dependent on the GLLGS amino acid sequence, we also tested binding of immobilised TCRpCDC25b to HLA-A2 containing a different phosphopeptide featuring a p-Ser at position 5 (SLLTpSPPKA (termed SLLTpS) derived from Thyroid hormone receptor interacting protein 12). […] We then measured the strength of TCRpCDC25b phosphopeptide recognition by equilibrium affinity analysis, repeating injections of HLA-A2-GLLGpS over a range of concentrations (Figure 7B). […] In both orientations, the presence of low-level protein aggregates was evident at higher concentrations.
Experiments utilised a BIAcore 3000 and HBS-EP buffer, at a flow rate of 10 μl.min^−1. For HLA-peptide injections, recombinant TCRs were produced in the Drosophila expression system incorporating C-terminal biotinylation tags, biotinylated in vitro using BirA, and immobilised to streptavidin-coated CM5 surfaces. […] Data were analysed using BIAevaluation 3.1 and Origin graphing software.
For orientation: In SPR one partner is held on a chip, and binding of the other changes the refractive index at the surface.

Assay [3] addresses T1, HLA-A2. Set-up: method as in PMID 18836451. The settings on record: binding of peptide to HLA-A2, modified vs unmodified form; read-out: Kd (pMHC affinity for HLA-A2); cited from earlier work.

As a reminder, the Kd is the equilibrium constant for the complex coming apart.

With `CC[C@H](C)[C@H](NC(=O)[C@H](CO)NC(=O)[C@H](C)NC(=O)[C@H](CCC(N)=O)NC(=O)[C@@H](N)CCCNC(=N)N)C(=O)N[C@@H](CCC(=O)O)C(=O)N[C@@H](CC(C)C)C(=O)N1CCC[C@H]1C(=O)N[C@@H](CO)C(=O)N[C@@H](CCSC)C(=O)N[C@@H](C)C(=O)N[C@H](C(=O)O)C(C)C` [RQA_Vnp], in assay [1], the Kd was 26 nM. On the same count and under the same terms, with `CC[C@H](C)[C@H](NC(=O)[C@H](COP(=O)(O)O)NC(=O)[C@H](C)NC(=O)[C@H](CCC(N)=O)NC(=O)[C@@H](N)CCCNC(=N)N)C(=O)N[C@@H](CCC(=O)O)C(=O)N[C@@H](CC(C)C)C(=O)N1CCC[C@H]1C(=O)N[C@@H](CO)C(=O)N[C@@H](CCSC)C(=O)N[C@@H](C)C(=O)N[C@H](C(=O)O)C(C)C` [RQA_Vp] the figure was 60 nM; with `CC[C@H](C)[C@H](NC(=O)[C@H](CCC(N)=O)NC(=O)[C@@H](N)CCCNC(=N)N)C(=O)N[C@@H](COP(=O)(O)O)C(=O)N[C@@H](CCC(N)=O)C(=O)N[C@@H](CC(=O)O)C(=O)N[C@H](C(=O)N[C@@H](CCCCN)C(=O)N[C@@H](CC(C)C)C(=O)O)C(C)C` [RQIp] (H-RQI[pS]QDVKL-OH), 25.5 nM. For the compound GLLGpSPVRA, the “specific binding of HLA-A2-peptide complex to immobilised TCRpCDC25b” value in assay [2] is recorded as “specific binding”. Besides, the Kd in assay [2] (two independent equilibrium analyses, once in either orientation, Scatchard analyses and hyperbolic fitting, read-out: Kd values from both orientations (range)) lay in the range of 35000 to 41000 nM. On to “RQApSLSISV [PKD2p, canonical phosphopeptide antigen derived from Protein Kinase D2]”, for which, in assay [3], the Kd was 38.5 nM.

For the compound RQISQDVKL [RQInp], the Kd in assay [1] came to 1920 nM.

For SLLTpSPPKA [reference compound], the “specific binding of HLA-A2-peptide complex to immobilised TCRpCDC25b” value in assay [2] was “identical responses over TCRpCDC25b and control surfaces”.
